Test results taken from patent US10174035B2, “6-morpholinyl-2-pyrazolyl-9H-purine derivatives and their use as PI3K inhibitors” (Daiichi Sankyo Company, Limited, priority 2015, dated 2019).
pIC50: −log10 of the molar value. ≈ marks a conversion by molar mass, not a printed value. Like-named read-outs stand apart in the source and are kept apart here.

Columns and labels:
[1] = target: PI3Kβ (Homo sapiens (Human), UniProt P42338); assay: In vitro enzyme assay (Kinase-Glo), selectivity, PI3Kβ; format: biochemical; conditions: enzyme 2.29 μg/mL; ATP 10 μM; PIP2 60 μM; 2 hours
Method: (§1) The Kinase-Glo luminescent kinase assay kit (from Promega) was used to measure kinase activity. In this assay, amount of ATP remaining in solution following a kinase reaction is measured. The effect of compounds on PI3Kδ inhibition was carried out by adding 2.29 μg/ml of recombinant PI3K δ enzyme (Proteros, Germany) to reaction mixture containing assay buffer (50 mM HEPES, pH 7.4, 50 mM NaCl, 0.05% CHAPS) supplemented with 10 mM MgCl2, 5 mM DTT, 60 μM Phosphatidyl inositol bisphosphate (PIP2) and 10 μM ATP in the absence or presence of different concentrations of the compounds in a final volume of 15 μl/well, in a 384 well plate. The reaction mixture was incubated for 2 hours at room temperature. At the end of incubation period the equal volume of Kinase-Glo plus (Promega, V3772), was added per well and the luminescence was measured after incubating for 10 minutes at room temperature in dark. Results were calculated by measuring the luminescence units of test samples to blanks containing no enzyme.
(§2) The compounds of the present invention were tested for their selectivity for PI3Kδ over PI3Kα, PI3Kβ and PI3Kγ following the above assay using specific recombinant enzymes (Proteros, Germany) for each kinase. Assay condition of kinase assay (PI3Kα, PI3Kβ, PI3Kγ and PI3Kδ) was as follows. Enzyme: 2.29 μg/mL; ATP: 10 μM; PIP2 substrate: 60 μM and Reaction Time: 2 hours.

[2] = target: recombinant PI3K δ enzyme (Homo sapiens (Human), UniProt O00329); assay: In vitro enzyme assay (Kinase-Glo luminescent kinase assay), PI3Kδ; format: biochemical
How it was run: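 Each recombinant human PI3K isoform at 2.29 μg/mL with 60 μM PIP2 and 10 μM ATP in HEPES pH 7.4, NaCl, CHAPS, MgCl2, DTT, 2 hours at room temperature. Remaining ATP read by Kinase-Glo luminescence relative to no-enzyme blanks.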

[3] = Solubility in Japanese Pharmacopeia First Fluid (JP1) and Second Fluid (JP2); format: physicochemical; conditions: thermodynamic from solid, room temperature
Method: A 10 mmol/L solution of the test compound was prepared in DMSO and dispensed 100 μL of 10 mmol/L DMSO stock solutions into labeled glass tubes in duplicate, one for Japanese Pharmacopeia First Fluid (JP1) and second for Japanese Pharmacopeia Second Fluid (JP2). After evaporation of DMSO from each tube, 500 μL of JP1 and JP2 fluid were added in each tube, respectively. These tubes were sonicated for 1 minute and placed on shaker for 30 minutes with an interval of 30 seconds at every 5 minute. Tubes were placed in dark at room temperature for 1 hour and solution was filtered through membrane filter. The filtrate was diluted 2-fold and 10-fold. The resulting test solutions was analyzed and quantified against the standards using UPLC (standard preparation-10 mmol/L solution in DMSO is serially diluted with 50% aqueous acetonitrile solution to prepare 2 solutions; 100 μmol/L standard solution and 5 μmol/L standard solution).

[4] = target: PI3Kγ (Homo sapiens (Human), UniProt P48736); assay: In vitro enzyme assay (Kinase-Glo), selectivity, PI3Kγ; format: biochemical; conditions: enzyme 2.29 μg/mL; ATP 10 μM; PIP2 60 μM; 2 hours
Method: The Kinase-Glo luminescent kinase assay kit (from Promega) was used to measure kinase activity. In this assay, amount of ATP remaining in solution following a kinase reaction is measured. […] The reaction mixture was incubated for 2 hours at room temperature. At the end of incubation period the equal volume of Kinase-Glo plus (Promega, V3772), was added per well and the luminescence was measured after incubating for 10 minutes at room temperature in dark. Results were calculated by measuring the luminescence units of test samples to blanks containing no enzyme.
The compounds of the present invention were tested for their selectivity for PI3Kδ over PI3Kα, PI3Kβ and PI3Kγ following the above assay using specific recombinant enzymes (Proteros, Germany) for each kinase. Assay condition of kinase assay (PI3Kα, PI3Kβ, PI3Kγ and PI3Kδ) was as follows.

[5] = test system: eosinophil count in bronchoalveolar lavage fluid; assay: Ovalbumin-induced airway eosinophilia model in Brown Norway rats; format: in vivo; conditions: oral, bid; absolute eosinophil count in BAL fluid
Method: The protocols were followed in similar fashion as described in Clin. Exp. Immunol., 2001; 126:9-15 and J. Pharmacol. Exp. Ther., 2011; 337:145-54. Male Brown Norway rats were sensitized by intraperitoneal injection of a suspension of 1 mg of ovalbumin and 100 mg of aluminum hydroxide (in sterile 0.9% saline) on day 0 and 7. On day 14, the compounds were administered to the rats by oral gavage. One hour after oral administration, the animals were placed into a perspex chamber and exposed to an aerosol of 5% ovalbumin for ten minutes. Compounds were administered on Day 14 and Day 15 either once or twice daily. Forty-eight hours after ovalbumin challenge, the animals were euthanized and bronchoalveolar lavage fluid was collected. The cell suspensions were processed and absolute eosinophil count was enumerated.

[6] = test system: IFN-γ release in mouse splenocytes; assay: Phytohaemagglutinin (PHA)-induced interferon (IFN)-gamma release in mouse splenocytes; set-up: species or system C57BL/6 mouse; conditions: Splenocyte, PHA (10 μg/ml) for 48 hours, IFN-γ by ELISA, read-out: Cell Based IC50
Method: Effect of compounds on mitogen-induced IFN-γ release in mouse splenocytes was used to evaluate their potency in cell-based assay system [Blood (2010) 115: 2203-2213; Current Protocols in Immunology (2004) 3.12.1-3.12.20].
Mouse splenocytes were obtained from the spleen of a C57BL/6 mouse and plated at a density of 0.25 million cells/well in a 96 well tissue culture plate. The effect of the compounds to inhibit IFN-γ release was evaluated by treating the splenocytes with various concentrations of the test compounds followed by stimulation with PHA (10 μg/ml) for 48 hours. The IFN-γ release in the cell culture supernatant was quantified by ELISA as per the manufacturer's protocol (BD Biosciences, #555138).

[7] = test system: eosinophil count in bronchoalveolar lavage fluid; assay: House dust mite (HDM) induced chronic asthma model in Balb/c mice; format: in vivo; conditions: oral twice daily from week 3 to week 5; absolute eosinophil count in BAL fluid
Method: The protocol was followed as described in Am. J. Respir. Crit. Care Med., 2004; 169: 378-385. Female Balb/c mice were exposed to purified HDM (Dermatophagoides pteronyssinus) extract, intranasally (25 μg of protein in 20 μl of saline) for 5 days/week for up to five consecutive weeks. Compounds were administered orally twice daily from week 3 to week 5. Forty-eight hours after last HDM exposure, the animals were euthanized and bronchoalveolar lavage fluid was collected. The cell suspensions were processed and absolute eosinophil count was enumerated.

[8] = target: PI3Kα (Homo sapiens (Human), UniProt P42336); assay: In vitro enzyme assay (Kinase-Glo), selectivity, PI3Kα; format: biochemical; conditions: enzyme 2.29 μg/mL; ATP 10 μM; PIP2 60 μM; 2 hours
Method: as §1, §2

[9] = pH 1.2, simulated gastric fluid, Japanese Pharmacopeia First Fluid (JP1), read-out: Solubility JP1
[10] = pH 6.8, aqueous buffer, Japanese Pharmacopeia Second Fluid (JP2), read-out: Solubility JP2

Sequence of recombinant PI3K δ enzyme (O00329 whole entry, species assumed, canonical isoform): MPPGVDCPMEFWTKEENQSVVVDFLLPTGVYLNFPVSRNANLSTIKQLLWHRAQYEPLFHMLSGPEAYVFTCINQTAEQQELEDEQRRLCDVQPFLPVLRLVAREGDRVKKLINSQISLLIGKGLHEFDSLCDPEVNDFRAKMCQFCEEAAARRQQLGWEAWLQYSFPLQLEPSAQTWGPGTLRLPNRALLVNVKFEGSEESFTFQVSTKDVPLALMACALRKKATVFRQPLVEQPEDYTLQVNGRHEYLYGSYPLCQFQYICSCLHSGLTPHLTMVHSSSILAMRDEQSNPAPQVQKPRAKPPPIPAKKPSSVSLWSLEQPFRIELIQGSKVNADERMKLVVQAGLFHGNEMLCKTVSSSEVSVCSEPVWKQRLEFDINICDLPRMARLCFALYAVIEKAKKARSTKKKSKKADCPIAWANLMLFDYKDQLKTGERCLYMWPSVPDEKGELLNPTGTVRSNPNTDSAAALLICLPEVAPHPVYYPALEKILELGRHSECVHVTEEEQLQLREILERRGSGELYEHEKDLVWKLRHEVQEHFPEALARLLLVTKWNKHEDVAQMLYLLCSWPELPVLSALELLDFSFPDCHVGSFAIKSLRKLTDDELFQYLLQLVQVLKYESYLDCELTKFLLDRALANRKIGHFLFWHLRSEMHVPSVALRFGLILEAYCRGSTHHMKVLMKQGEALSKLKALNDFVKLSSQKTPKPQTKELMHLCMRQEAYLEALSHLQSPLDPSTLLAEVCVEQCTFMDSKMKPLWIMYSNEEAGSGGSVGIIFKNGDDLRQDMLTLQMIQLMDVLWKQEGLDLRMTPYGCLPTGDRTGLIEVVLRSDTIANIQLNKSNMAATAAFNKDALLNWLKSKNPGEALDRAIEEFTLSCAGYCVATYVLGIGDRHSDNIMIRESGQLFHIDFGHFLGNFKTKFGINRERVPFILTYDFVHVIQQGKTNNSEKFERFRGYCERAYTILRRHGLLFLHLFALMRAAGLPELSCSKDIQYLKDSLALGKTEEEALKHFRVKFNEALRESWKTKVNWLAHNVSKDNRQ
Sequence of recombinant PI3K δ enzyme (P27986 whole entry partner, species assumed, canonical isoform): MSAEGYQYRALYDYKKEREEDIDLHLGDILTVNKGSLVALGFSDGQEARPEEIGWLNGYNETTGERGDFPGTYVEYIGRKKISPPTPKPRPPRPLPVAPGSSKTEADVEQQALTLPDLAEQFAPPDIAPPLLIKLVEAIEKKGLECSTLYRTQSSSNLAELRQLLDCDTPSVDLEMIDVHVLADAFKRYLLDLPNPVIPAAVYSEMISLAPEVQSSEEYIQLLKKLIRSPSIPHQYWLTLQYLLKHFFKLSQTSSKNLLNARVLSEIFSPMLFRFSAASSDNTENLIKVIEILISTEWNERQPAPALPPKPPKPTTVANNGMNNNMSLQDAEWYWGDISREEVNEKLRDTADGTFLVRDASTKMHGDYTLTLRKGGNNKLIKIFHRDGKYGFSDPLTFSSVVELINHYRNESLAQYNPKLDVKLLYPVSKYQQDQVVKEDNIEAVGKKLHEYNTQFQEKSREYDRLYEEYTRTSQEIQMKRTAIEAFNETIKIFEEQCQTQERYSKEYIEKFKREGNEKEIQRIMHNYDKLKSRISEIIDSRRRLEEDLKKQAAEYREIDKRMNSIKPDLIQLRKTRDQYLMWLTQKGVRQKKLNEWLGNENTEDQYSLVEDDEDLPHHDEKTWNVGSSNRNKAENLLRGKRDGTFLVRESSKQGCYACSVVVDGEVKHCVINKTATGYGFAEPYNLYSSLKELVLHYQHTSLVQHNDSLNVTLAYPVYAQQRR
Sequence of PI3Kα (P42336 whole entry, species assumed): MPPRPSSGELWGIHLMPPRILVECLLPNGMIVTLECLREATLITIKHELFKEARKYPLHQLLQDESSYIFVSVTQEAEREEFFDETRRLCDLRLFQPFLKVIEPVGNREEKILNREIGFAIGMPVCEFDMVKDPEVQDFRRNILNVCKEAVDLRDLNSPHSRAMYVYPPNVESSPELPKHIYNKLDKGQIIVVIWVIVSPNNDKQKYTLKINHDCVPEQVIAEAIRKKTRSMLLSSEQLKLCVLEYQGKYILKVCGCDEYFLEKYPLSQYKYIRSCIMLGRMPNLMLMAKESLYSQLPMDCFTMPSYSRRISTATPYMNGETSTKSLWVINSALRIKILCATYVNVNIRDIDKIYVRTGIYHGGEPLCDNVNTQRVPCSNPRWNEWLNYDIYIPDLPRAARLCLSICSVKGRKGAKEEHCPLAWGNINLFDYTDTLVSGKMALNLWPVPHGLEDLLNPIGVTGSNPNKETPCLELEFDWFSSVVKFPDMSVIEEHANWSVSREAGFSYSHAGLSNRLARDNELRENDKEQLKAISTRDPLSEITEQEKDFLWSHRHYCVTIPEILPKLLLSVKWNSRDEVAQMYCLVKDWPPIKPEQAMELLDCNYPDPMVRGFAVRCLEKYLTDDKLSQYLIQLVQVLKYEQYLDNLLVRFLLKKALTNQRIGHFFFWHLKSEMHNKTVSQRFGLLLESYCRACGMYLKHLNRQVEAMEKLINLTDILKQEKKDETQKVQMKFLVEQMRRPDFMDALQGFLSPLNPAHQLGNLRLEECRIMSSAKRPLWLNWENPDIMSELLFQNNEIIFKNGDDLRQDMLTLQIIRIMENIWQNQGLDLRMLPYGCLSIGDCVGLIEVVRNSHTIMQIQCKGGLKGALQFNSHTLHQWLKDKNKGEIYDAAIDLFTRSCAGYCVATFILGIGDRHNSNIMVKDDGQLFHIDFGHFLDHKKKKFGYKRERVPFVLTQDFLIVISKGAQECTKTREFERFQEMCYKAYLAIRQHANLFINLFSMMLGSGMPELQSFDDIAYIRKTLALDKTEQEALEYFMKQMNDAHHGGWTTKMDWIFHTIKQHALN
Sequence of PI3Kα (P27986 whole entry partner, species assumed): as the sequence (P27986 whole entry partner, species assumed, canonical isoform) above
Sequence of PI3Kγ (P48736 whole entry, species assumed): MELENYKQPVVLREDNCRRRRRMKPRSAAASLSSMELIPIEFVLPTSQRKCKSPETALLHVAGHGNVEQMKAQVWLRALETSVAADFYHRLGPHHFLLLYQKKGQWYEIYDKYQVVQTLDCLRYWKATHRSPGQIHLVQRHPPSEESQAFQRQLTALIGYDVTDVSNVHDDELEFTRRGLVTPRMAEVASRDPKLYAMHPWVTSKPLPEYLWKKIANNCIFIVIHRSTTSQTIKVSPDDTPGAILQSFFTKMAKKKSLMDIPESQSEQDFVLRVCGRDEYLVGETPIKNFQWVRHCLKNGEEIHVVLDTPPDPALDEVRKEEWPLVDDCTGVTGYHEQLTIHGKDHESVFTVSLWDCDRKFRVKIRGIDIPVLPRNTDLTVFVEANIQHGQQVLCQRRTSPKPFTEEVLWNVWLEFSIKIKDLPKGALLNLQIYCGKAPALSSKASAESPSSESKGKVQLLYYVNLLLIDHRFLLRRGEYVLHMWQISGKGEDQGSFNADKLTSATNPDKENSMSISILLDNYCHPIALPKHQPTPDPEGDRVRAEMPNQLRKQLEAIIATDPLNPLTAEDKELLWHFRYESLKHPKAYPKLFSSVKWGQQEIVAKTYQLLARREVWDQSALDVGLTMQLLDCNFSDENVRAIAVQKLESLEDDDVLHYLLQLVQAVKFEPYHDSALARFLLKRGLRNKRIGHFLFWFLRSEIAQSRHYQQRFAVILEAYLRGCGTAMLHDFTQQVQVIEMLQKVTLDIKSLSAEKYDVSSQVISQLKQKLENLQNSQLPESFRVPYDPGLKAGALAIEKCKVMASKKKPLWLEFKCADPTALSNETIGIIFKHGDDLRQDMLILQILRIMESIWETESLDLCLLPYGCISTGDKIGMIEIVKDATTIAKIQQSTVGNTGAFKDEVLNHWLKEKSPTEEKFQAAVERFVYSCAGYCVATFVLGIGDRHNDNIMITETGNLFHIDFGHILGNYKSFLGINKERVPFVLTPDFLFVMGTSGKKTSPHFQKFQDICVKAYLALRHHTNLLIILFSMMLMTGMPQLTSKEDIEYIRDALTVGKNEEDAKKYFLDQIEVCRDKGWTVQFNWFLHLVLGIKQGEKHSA
Sequence of PI3Kβ (P42338 whole entry, species assumed): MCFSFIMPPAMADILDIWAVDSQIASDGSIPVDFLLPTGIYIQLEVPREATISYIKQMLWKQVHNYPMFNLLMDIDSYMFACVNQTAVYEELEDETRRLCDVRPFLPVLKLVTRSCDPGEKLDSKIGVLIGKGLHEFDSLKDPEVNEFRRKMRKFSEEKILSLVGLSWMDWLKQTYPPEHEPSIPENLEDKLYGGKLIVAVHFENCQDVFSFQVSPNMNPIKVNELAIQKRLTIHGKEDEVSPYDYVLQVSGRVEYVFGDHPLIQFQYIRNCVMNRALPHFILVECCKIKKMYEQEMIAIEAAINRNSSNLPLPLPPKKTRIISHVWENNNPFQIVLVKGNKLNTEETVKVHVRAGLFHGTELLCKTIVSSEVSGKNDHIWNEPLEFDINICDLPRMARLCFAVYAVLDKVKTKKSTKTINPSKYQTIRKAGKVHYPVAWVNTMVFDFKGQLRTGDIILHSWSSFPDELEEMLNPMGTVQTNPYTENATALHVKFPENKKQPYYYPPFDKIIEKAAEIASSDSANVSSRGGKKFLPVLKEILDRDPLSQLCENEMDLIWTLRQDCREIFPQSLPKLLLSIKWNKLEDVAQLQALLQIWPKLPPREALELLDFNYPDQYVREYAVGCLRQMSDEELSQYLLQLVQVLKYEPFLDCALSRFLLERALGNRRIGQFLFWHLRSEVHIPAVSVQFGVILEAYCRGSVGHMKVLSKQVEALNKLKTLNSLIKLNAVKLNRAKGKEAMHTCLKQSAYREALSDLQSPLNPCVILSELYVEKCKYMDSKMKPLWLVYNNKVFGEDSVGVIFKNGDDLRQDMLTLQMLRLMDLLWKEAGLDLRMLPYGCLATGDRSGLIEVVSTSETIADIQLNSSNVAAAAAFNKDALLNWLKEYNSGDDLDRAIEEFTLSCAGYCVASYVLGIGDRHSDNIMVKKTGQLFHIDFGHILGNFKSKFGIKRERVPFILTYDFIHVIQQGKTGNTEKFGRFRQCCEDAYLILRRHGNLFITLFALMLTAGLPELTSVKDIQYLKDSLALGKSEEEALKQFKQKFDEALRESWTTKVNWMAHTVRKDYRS
Sequence of PI3Kβ (P27986 whole entry partner, species assumed): as the sequence (P27986 whole entry partner, species assumed, canonical isoform) above

Structure (SMILES)	pIC50 [1]	pIC50 [2]	pIC50 ([2]; enzyme 2.29 μg/mL, ATP 10 μM, PIP2 60 μM, 2 hours)	solubility at 30 min [3, 9]	solubility at 30 min [3, 10]	pIC50 [4]	ED50 [5]	pIC50 [6]	ED50 [7]	pIC50 [8]
Cn1cc(-c2nc(N3CCOCC3)c3nc(C(=O)N4CCC(N5CCOCC5)CC4)[nH]c3n2)cn1 [Compound No. 58, [2-(1-methyl-1H-pyrazol-4-yl)-6-(morpholin-4-yl)-9H-purin-8-yl][4-(morpholin-4-yl)piperidin-1-yl]methanone]	< 5.00	7.85	7.85	> 1200 µg/mL	170 µg/mL (≈ 353 µM)	< 6.00	0.3 mg/kg, bid	8.22	0.1 mg/Kg, bid	< 6.00
C[C@@H]1CN(C2CCN(C(=O)c3nc4c(N5CCOCC5)nc(-c5cnn(C)c5)nc4[nH]3)CC2)C[C@H](C)O1 [compound 5, {4-[cis-2,6-Dimethylmorpholin-4-yl]piperidin-1-yl}[2-(1-methyl-1H-pyrazol-4-yl)-6-(morpholin-4-yl)-9H-purin-8-yl]methanone]				834 µg/mL (≈ 1640 µM)	286 µg/mL (≈ 561 µM)	5.93		6.95	1.6 mg/Kg, bid	< 6.00
Cc1nn(C)cc1-c1nc2[nH]c(C(=O)N3CCC(N4CCOCC4)CC3)nc2c(N2CCOCC2)c1F [compound 96, [5-(1,3-Dimethyl-1H-pyrazol-4-yl)-6-fluoro-7-(morpholin-4-yl)-3H-imidazo[4,5-b]pyridin-2-yl][4-(morpholin-4-yl)piperidin-1-yl]methanone]		8.52		> 1020 µg/mL	424 µg/mL (≈ 827 µM)		2.5 mg/kg, bid			
